Measured values: ChEMBL document CHEMBL4364278, “2,7-naphthyridinone-based MET kinase inhibitors: A promising novel scaffold for antitumor drug development” (Eur J Med Chem, 2019)
One block for each compound: values may come before it.

Key:
HT-29 [1] = assay: Antitumour activity against human HT-29 cells xenografted in athymic nude mouse assessed as tumor growth inhibition at 25 mg/kg, po administrated for 3 weeks by caliper method relative to control; type: functional; conditions: HT-29, po, 504 h, read-out: TGI
[2] = biological target: T1, Hepatocyte growth factor receptor (Homo sapiens, UniProt P08581)
T1 sequence (P08581 whole entry): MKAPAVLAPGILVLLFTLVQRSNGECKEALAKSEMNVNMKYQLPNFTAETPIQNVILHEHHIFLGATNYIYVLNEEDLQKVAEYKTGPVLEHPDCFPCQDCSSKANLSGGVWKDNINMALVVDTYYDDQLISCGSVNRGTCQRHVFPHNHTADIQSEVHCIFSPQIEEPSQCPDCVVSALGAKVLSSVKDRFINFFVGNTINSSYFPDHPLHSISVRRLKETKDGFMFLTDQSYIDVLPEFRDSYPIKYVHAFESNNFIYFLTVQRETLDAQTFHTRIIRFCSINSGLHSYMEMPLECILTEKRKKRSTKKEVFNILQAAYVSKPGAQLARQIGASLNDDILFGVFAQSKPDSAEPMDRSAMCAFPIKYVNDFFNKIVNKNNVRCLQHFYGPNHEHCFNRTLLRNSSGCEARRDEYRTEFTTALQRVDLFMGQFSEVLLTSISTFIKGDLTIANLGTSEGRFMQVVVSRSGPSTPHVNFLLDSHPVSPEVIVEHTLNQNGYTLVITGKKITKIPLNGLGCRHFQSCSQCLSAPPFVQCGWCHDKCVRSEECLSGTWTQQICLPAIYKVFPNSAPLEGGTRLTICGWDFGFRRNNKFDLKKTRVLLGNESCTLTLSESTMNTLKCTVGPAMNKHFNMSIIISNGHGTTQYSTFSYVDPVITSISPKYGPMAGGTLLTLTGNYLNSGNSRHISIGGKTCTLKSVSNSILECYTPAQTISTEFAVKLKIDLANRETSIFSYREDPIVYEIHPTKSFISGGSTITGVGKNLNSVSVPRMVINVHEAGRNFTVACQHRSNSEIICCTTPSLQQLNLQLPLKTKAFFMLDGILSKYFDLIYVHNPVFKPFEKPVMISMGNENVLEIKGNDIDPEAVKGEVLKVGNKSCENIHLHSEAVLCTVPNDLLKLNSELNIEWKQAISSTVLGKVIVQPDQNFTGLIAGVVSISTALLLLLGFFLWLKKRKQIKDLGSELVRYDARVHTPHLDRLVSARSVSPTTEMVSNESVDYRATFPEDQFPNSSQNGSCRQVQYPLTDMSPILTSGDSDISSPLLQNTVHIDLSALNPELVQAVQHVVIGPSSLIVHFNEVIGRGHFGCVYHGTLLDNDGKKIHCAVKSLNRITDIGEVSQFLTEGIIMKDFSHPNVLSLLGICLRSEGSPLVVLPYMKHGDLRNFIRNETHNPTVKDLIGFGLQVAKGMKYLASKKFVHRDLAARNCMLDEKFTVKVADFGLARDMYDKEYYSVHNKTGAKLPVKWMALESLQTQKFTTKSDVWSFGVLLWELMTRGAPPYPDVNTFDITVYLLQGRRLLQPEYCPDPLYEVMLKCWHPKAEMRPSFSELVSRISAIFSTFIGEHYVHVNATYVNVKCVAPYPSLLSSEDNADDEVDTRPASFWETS
Description: Inhibition of human recombinant His-tagged cMET cytoplasmic domain expressed in baculovirus expression system using biotin as substrate preincubated for 5 mins followed by substrate addition and measured after 30 to 60 mins by HTRF assay

[3] = biological target: T1, Hepatocyte growth factor receptor; remark: listed apart in the source
Description: Inhibition of HGF-induced cMET autophosphorylation in human MKN45 cells preincubated for 1 hr followed by HGF addition and measured after 10 mins by ELISA

[4] = biological target: Vascular endothelial growth factor receptor 2 (Homo sapiens, UniProt P35968)
Description: Inhibition of recombinant human His-tagged VEGFR2 cytoplasmic domain expressed in baculovirus expression system using biotin as substrate preincubated for 5 mins followed by substrate addition and measured after 30 to 60 mins by HTRF assay

U-87 MG [5] = assay: animal or person; conditions: Mus musculus, po, 504 h, read-out: TGI
Description: Antitumour activity against human U87MG cells xenografted in athymic nude mouse assessed as tumor growth inhibition at 25 mg/kg, po administrated for 3 weeks by caliper method relative to control

[6] = biological target: Aurora kinase B (Homo sapiens) (UniProt Q96GD4); assay: Inhibition of AuroraB (unknown origin) at 1 uM relative to control
Sequence of Aurora kinase B (Homo sapiens) (Q96GD4 whole entry): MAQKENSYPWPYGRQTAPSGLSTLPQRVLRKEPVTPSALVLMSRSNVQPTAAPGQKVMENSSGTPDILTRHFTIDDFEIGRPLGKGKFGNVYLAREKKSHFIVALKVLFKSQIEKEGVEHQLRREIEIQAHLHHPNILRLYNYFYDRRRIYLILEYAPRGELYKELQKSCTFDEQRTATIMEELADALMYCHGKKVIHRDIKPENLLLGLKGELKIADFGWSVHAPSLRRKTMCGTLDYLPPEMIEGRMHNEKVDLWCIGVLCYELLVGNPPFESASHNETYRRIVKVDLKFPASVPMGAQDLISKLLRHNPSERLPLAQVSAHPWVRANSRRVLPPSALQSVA

[7] = biological target: Tyrosine-protein kinase receptor UFO (Homo sapiens) (UniProt P30530); assay: Inhibition of AXL (unknown origin) at 1 uM relative to control
Sequence of Tyrosine-protein kinase receptor UFO (Homo sapiens) (P30530 whole entry, the tested form may be a part): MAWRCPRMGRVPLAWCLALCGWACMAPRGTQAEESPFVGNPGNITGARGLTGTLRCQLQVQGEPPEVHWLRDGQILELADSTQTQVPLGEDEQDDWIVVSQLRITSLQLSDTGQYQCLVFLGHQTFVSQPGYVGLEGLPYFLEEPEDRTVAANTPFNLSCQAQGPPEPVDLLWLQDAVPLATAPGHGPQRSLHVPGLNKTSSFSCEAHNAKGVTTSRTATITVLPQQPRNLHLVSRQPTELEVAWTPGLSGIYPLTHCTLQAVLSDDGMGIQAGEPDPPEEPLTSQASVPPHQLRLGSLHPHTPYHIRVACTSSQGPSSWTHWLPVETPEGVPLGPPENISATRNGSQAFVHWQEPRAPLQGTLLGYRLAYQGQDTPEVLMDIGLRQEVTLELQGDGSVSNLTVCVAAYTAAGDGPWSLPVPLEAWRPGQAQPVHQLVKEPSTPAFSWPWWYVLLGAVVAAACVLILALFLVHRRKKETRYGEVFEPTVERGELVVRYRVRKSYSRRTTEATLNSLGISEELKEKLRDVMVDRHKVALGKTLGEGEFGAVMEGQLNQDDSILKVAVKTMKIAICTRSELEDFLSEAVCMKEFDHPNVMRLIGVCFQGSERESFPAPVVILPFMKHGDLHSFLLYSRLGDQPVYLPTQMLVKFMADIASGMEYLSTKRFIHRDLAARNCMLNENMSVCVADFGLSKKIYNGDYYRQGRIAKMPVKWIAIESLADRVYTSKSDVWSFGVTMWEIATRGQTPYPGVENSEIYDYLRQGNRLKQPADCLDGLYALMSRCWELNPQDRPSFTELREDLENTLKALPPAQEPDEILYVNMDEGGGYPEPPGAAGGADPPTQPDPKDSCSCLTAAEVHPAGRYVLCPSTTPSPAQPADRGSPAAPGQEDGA

[8] = biological target: Discoidin domain-containing receptor 2 (Homo sapiens) (UniProt Q16832); assay: Inhibition of DDR2 (unknown origin) at 1 uM relative to control
[9] = biological target: Dual specificity tyrosine-phosphorylation-regulated kinase 2 (Homo sapiens) (UniProt Q92630); assay: Inhibition of DYRK2 (unknown origin) at 1 uM relative to control
[10] = biological target: Ephrin type-A receptor 3 (Homo sapiens) (UniProt P29320); assay: Inhibition of EphA3 (unknown origin) at 1 uM relative to control
Sequence of Ephrin type-A receptor 3 (Homo sapiens) (P29320 whole entry): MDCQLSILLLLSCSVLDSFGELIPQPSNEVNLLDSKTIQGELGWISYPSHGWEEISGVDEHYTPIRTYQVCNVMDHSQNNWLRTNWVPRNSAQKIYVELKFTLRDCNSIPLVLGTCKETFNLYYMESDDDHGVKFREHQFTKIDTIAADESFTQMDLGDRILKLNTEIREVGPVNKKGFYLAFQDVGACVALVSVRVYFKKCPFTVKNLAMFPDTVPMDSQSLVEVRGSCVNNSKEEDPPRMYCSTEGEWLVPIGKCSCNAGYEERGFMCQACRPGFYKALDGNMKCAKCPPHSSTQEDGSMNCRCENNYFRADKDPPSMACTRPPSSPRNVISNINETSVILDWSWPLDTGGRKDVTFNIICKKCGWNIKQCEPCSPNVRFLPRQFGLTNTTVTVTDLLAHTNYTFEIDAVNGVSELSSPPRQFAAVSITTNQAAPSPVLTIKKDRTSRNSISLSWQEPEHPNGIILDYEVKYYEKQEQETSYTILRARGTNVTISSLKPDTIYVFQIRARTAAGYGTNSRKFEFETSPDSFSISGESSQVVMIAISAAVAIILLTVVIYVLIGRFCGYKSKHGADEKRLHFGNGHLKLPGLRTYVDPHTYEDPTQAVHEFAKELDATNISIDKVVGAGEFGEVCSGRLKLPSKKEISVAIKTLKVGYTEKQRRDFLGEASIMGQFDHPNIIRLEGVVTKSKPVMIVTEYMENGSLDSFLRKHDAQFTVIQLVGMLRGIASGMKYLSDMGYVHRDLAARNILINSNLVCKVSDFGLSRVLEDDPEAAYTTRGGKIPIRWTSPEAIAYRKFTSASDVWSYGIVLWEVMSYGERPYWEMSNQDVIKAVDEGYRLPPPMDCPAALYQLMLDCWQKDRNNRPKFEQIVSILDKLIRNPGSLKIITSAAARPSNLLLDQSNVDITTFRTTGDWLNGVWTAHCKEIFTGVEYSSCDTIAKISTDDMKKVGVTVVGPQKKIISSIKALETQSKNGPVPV

[11] = biological target: Ephrin type-B receptor 4 (Homo sapiens) (UniProt P54760); assay: Inhibition of EphB4 (unknown origin) at 1 uM relative to control
[12] = biological target: Tyrosine-protein kinase Fes/Fps (Homo sapiens) (UniProt P07332); assay: Inhibition of FES (unknown origin) at 1 uM relative to control
[13] = biological target: Tyrosine-protein kinase Fgr (Homo sapiens) (UniProt P09769); assay: Inhibition of FGR (unknown origin) at 1 uM relative to control
[14] = biological target: Vascular endothelial growth factor receptor 1 (Homo sapiens) (UniProt P17948); assay: Inhibition of FLT1 (unknown origin) at 1 uM relative to control
[15] = biological target: Vascular endothelial growth factor receptor 3 (Homo sapiens) (UniProt P35916); assay: Inhibition of FLT4 (unknown origin) at 1 uM relative to control
[16] = biological target: Macrophage colony-stimulating factor 1 receptor (Homo sapiens) (UniProt P07333); assay: Inhibition of FMS (unknown origin) at 1 uM relative to control
Sequence of Macrophage colony-stimulating factor 1 receptor (Homo sapiens) (P07333 whole entry): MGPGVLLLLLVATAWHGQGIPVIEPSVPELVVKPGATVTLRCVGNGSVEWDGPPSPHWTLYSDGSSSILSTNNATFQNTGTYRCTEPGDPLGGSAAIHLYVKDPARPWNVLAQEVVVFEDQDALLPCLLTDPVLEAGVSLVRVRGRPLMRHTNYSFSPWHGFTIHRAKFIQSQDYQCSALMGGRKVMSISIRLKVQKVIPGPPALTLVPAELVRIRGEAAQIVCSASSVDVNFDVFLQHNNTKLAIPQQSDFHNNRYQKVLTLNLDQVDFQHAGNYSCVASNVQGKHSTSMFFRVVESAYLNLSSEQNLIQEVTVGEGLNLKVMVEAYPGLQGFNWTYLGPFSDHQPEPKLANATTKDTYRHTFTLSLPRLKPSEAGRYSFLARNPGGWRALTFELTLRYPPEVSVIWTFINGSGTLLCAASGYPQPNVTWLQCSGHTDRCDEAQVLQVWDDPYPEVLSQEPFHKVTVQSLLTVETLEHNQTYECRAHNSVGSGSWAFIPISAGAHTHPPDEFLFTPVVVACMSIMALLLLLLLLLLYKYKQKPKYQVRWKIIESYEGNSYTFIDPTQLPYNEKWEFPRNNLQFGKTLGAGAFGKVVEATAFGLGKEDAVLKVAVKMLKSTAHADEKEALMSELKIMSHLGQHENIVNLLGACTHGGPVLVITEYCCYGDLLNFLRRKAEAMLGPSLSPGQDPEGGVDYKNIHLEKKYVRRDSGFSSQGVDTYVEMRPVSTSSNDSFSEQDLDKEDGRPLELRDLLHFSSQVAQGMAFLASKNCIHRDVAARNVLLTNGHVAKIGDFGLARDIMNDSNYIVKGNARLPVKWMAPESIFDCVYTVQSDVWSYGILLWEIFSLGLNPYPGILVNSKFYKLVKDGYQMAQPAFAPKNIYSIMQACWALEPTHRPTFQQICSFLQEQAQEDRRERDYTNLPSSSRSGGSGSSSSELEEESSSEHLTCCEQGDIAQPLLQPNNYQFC

[17] = biological target: Tyrosine-protein kinase Lck (Homo sapiens) (UniProt P06239); assay: Inhibition of LCK (unknown origin) at 1 uM relative to control
Sequence of Tyrosine-protein kinase Lck (Homo sapiens) (P06239 2-509 limits assumed): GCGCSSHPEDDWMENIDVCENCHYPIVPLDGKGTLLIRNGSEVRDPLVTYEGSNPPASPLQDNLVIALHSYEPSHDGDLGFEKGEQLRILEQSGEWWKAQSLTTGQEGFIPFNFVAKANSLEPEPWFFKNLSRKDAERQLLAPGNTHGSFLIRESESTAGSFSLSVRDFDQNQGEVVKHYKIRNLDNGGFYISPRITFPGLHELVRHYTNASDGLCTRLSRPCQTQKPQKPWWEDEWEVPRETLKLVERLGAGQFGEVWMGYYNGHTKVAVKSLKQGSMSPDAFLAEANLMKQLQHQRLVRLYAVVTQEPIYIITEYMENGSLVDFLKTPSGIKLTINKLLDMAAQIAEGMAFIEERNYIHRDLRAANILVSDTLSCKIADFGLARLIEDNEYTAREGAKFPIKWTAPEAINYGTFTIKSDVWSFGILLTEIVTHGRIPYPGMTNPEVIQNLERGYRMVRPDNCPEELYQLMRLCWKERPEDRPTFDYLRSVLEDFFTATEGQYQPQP

[18] = biological target: Tyrosine-protein kinase Lyn (Homo sapiens) (UniProt P07948); assay: Inhibition of LYN (unknown origin) at 1 uM relative to control
[19] = biological target: Tyrosine-protein kinase Mer (Homo sapiens) (UniProt Q12866); assay: Inhibition of MER (unknown origin) at 1 uM relative to control
[20] = biological target: cAMP-dependent protein kinase catalytic subunit alpha (Homo sapiens) (UniProt P17612); assay: Inhibition of PKA (unknown origin) at 1 uM relative to control
[21] = biological target: Proto-oncogene tyrosine-protein kinase receptor Ret (Homo sapiens) (UniProt P07949); assay: Inhibition of RET (unknown origin) at 1 uM relative to control
[22] = biological target: Macrophage-stimulating protein receptor (Homo sapiens) (UniProt Q04912); assay: Inhibition of RON (unknown origin) at 1 uM relative to control
[23] = biological target: Proto-oncogene tyrosine-protein kinase ROS (Homo sapiens) (UniProt P08922); assay: Inhibition of ROS (unknown origin) at 1 uM relative to control
[24] = biological target: Tyrosine-protein kinase receptor TYRO3 (Homo sapiens) (UniProt Q06418); assay: Inhibition of RSE (unknown origin) at 1 uM relative to control
[25] = biological target: Proto-oncogene tyrosine-protein kinase Src (Homo sapiens) (UniProt P12931); assay: Inhibition of SRC (1 to 530 residues)(unknown origin) at 1 uM relative to control
[26] = biological target: High affinity nerve growth factor receptor (Homo sapiens) (UniProt P04629); assay: Inhibition of TRKA (unknown origin) at 1 uM relative to control
[27] = biological target: BDNF/NT-3 growth factors receptor (Homo sapiens) (UniProt Q16620); assay: Inhibition of TRKB (unknown origin) at 1 uM relative to control
[28] = Cmax in rat at 10 mg/kg, po; type: ADME, organism-based; design: dose 10 mg/kg, route oral; conditions: in vivo
[29] = Tmax in rat at 10 mg/kg, po; type: ADME, organism-based; conditions: in vivo
[30] = Half life in rat at 10 mg/kg, po; type: ADME, organism-based; conditions: in vivo
[31] = AUC (0 to infinity) in rat at 10 mg/kg, po; type: ADME, organism-based; design: dose 10 mg/kg, route oral, time infinity; conditions: in vivo
[32] = Oral bioavailability in rat at 10 mg/kg; type: ADME, organism-based; conditions: in vivo
[33] = Half life in rat at 2.5 mg/kg, iv; type: ADME, organism-based; conditions: in vivo
[34] = AUC (0 to infinity) in rat at 2.5 mg/kg, iv; type: ADME, organism-based; design: dose 2.5 mg/kg, route intravenous, time infinity; conditions: in vivo
[35] = Clearance in rat at 2.5 mg/kg, iv; type: ADME, organism-based; conditions: in vivo
[36] = Volume of distribution in rat at 2.5 mg/kg, iv; type: ADME, organism-based; conditions: in vivo
[37] = Fraction unbound in rat plasma at 2 uM; type: ADME, cell-free
[38] = Fraction unbound in mouse plasma at 2 uM; type: ADME, cell-free
[39] = Fraction unbound in human plasma at 2 uM; type: ADME, cell-free
U-87 MG [40] = assay: Antitumour activity against human U87MG cells xenografted in orally dosed athymic nude mouse assessed as inhibition in tumor growth administrated for 3 weeks by caliper method; type: functional; conditions: for inhibition: U-87MG ATCC; for minimal effective dose: po, 504 h, read-out: MED
U-87 MG [41] = assay: Antitumour activity against human U87MG cells xenografted in athymic nude mouse assessed as tumor growth inhibition at 12.5 mg/kg, po administrated for 3 weeks by caliper method relative to control; type: functional, U-87MG ATCC; conditions: 504 h, read-out: TGI
U-87 MG [42] = assay: Antitumour activity against human U87MG cells xenografted in athymic nude mouse assessed as tumor growth inhibition at 50 mg/kg, po administrated for 3 weeks by caliper method relative to control; type: functional, U-87MG ATCC; conditions: 504 h, read-out: TGI
HT-29 [43] = assay: Antitumour activity against human HT-29 cells xenografted in athymic nude mouse assessed as tumor growth inhibition at 50 mg/kg, po administrated for 3 weeks by caliper method relative to control; type: functional; conditions: HT-29, po, 504 h, read-out: TGI
U-87 MG [44] = assay: Antitumour activity against human U87MG cells xenografted in athymic nude mouse assessed as tumor growth inhibition at 40 mg/kg, po administrated for 3 weeks by caliper method relative to control; conditions: 504 h, read-out: TGI

IC50 [2]: 7.6 nM | IC50 [3]: 46.6 nM | IC50 [4]: 139 nM
Structure (SMILES): CCOc1ccn(-c2ccc(F)cc2)c(=O)c1C(=O)Nc1ccc(Oc2ccnc(N)c2Cl)c(F)c1 [BMS-777607]
inhibition in vivo at 25 mg/kg (HT-29 [1]): 15% | inhibition in vivo at 25 mg/kg (U-87 MG [5]): 98%

Structure (SMILES): Nc1nccc(Oc2ccc(Nc3nccc4ccn(-c5ccc(F)cc5)c(=O)c34)cc2F)c1Cl
inhibition [6]: 44% | inhibition [7]: 97% | inhibition [8]: 98% | inhibition [9]: -9% | inhibition [10]: 38% | inhibition [11]: 10% | inhibition [12]: 10% | inhibition [13]: 62% | inhibition [14]: 95% | inhibition [15]: 100% | inhibition [16]: 88% | inhibition [17]: 75% | inhibition [18]: 43% | inhibition [19]: 100% | inhibition [20]: 43% | inhibition [21]: 96% | inhibition [22]: 100% | inhibition [23]: 87% | inhibition [24]: 83% | inhibition [25]: 35% | inhibition [26]: 99% | inhibition [27]: 100% | Cmax [28]: 1600 ng/mL | Tmax [29]: 1.2 h | half-life [30]: 5.1 h | AUC(0-inf) [31]: 6700 ng·h/mL | bioavailability [32]: 54% | half-life [33]: 3.2 h | AUC(0-inf) [34]: 3100 ng·h/mL | clearance [35]: 13.3 mL/min/kg | Vd [36]: 3.6 L/kg | Fu [37]: < 0.5% | Fu [38]: < 0.5% | Fu [39]: < 0.5% | inhibition (U-87 MG [40]): Dose-dependent effect | minimal effective dose (U-87 MG [40]): 12.5 mg/kg | inhibition in vivo at 12.5 mg/kg (U-87 MG [41]): 53% | inhibition in vivo at 50 mg/kg (U-87 MG [42]): 114% | inhibition in vivo at 25 mg/kg (HT-29 [1]): 50% | inhibition in vivo at 50 mg/kg (HT-29 [43]): 95% | IC50 [3]: 69 nM | inhibition in vivo at 25 mg/kg (U-87 MG [5]): 100%

Cmax [28]: 3700 ng/mL | Tmax [29]: 2.3 h | half-life [30]: 11 h | AUC(0-inf) [31]: 21200 ng·h/mL | bioavailability [32]: 51% | half-life [33]: 7 h | AUC [34]: 10500 ng·h/mL | CL [35]: 103 mL/min/kg | Vd [36]: 2.4 L/kg
Structure (SMILES): Cc1cc2ccnc(Nc3ccc(Oc4ccnc(N)c4Cl)c(F)c3)c2c(=O)n1-c1ccc(F)cc1
inhibition (U-87 MG [40]): Dose-dependent effect | minimal effective dose (U-87 MG [40]): 32.5 mg/kg | inhibition in vivo at 40 mg/kg (U-87 MG [44]): 72% | inhibition in vivo at 25 mg/kg (U-87 MG [5]): 44%

Cmax [28]: 2700 ng/mL | Tmax [29]: 1.5 h | half-life [30]: 4.9 h | AUC(0-inf) [31]: 25700 ng·h/mL | bioavailability [32]: 49% | half-life [33]: 4.2 h | AUC(0-inf) [34]: 13100 ng·h/mL | clearance [35]: 6.67 mL/min/kg | Vd [36]: 2.9 L/kg
Structure (SMILES): Cc1cc2ccnc(Nc3ccc(Oc4ccnc(N)c4I)c(F)c3)c2c(=O)n1-c1ccc(F)cc1

IC50 [2]: > 1000 nM
Structure (SMILES): Cc1cc2ccnc(Nc3ccc(Oc4ccnc(N)c4Cl)c(F)c3)c2c(=O)n1-c1ccc(OC(F)(F)F)cc1
